In patent publication US8945853B2, “Detection of intracellular binding events by measuring protein abundance” (DiscoveRx Corporation, priority 2012, dated 2015):
pEC50: −log10 of the molar value.

How the values were obtained:
[1] = target: BCL-2 / PL-Bak (Homo sapiens, UniProt P10415); assay: BCL-2 co-expressed with PL-Bak in U2OS cells, disruption by small molecules (FIG. 7C); type: cell-based
Description: (§1) Interaction of BCL-2 with a peptide test compound (Bim, Bak, and Bax) was studied.
(§2) The native BCL-2 was co-expressed with each of the ProLabel fusions in U2OS cells. Small molecules that are reported to disrupt BCL-2 interactions were then applied to the cells and incubated overnight.
(§3) Cells were transduced with the indicated target PL-fusion and the untagged protein Bcl-2. The cells were treated with the indicated compounds overnight and the remaining target-PL fusion was detected by lysing the cells in the presence of EA and substrate. Luminescence was measured 30 minutes later.

[2] = target: BCL-2 / PL-Bax (Homo sapiens, UniProt P10415); assay: BCL-2 co-expressed with PL-Bax in U2OS cells, disruption by small molecules (FIG. 7A); type: cell-based; details: for HillSlope / Bottom (best-fit) / Top (best-fit): PL-Bax; for Bottom (best-fit) / Top (best-fit) / effect on BCL-2 stabilization of Bax: U2OS, overnight; for Bottom (best-fit) / Top (best-fit): luminescence
Chain of BCL-2 / PL-Bax (P10415 whole entry): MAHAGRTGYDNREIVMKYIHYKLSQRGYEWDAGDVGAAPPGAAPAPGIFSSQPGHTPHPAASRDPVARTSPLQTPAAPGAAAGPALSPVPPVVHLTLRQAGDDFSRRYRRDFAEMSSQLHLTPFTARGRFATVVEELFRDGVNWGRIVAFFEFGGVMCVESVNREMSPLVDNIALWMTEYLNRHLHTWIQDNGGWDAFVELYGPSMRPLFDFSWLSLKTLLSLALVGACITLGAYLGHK
Description: as §1, §2, §3

[3] = target: BCL-2 / PL-Bim (Homo sapiens, UniProt P10415); assay: BCL-2 co-expressed with PL-Bim in U2OS cells, disruption by small molecules (FIG. 7B); type: cell-based; details: for HillSlope / Bottom (best-fit) / Top (best-fit): PL-Bim; for Bottom (best-fit) / Top (best-fit) / effect on BCL-2/Bim stabilization: U2OS, overnight; for Bottom (best-fit) / Top (best-fit): luminescence
Chain of BCL-2 / PL-Bim (P10415 whole entry): as above
Description: as §1, §2, §3

[4] = target: CYP 17A-PL fusion (Homo sapiens, UniProt P05093); assay: CYP17A-PL fusion stabilization in HEK cells (FIG. 11); type: cell-based
Chain of CYP 17A-PL fusion (P05093 with tags, fused parts or gaps): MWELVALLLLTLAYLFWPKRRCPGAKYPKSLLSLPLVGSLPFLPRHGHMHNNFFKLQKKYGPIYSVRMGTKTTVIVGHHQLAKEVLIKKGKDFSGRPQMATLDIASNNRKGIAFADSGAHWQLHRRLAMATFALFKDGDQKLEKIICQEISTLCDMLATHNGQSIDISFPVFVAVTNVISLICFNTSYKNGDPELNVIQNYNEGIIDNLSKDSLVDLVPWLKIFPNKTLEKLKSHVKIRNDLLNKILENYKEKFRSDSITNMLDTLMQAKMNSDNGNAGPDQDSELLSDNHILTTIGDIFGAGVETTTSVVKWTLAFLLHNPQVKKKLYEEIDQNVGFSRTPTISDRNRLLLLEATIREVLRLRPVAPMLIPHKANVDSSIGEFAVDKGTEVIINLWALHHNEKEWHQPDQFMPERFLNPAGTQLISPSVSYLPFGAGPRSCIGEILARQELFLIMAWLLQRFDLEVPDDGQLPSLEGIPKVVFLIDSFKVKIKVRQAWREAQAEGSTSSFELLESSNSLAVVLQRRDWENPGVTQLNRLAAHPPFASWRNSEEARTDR
Description: (§4) HEK cells were transduced with fusion protein expression construct. The cells were then treated with different compounds for 3-6 hrs at 37° C. the fusion proteins were then quantified to analyze the effect of different compounds on the stabilization of fusion proteins.

[5] = system: BRD4 (1)-PL fusion; assay: Bromodomain-PL fusion stability in HEK cells; type: cell-based; details: 6 hrs at 37° C.
Description: To study the effect of compound binding, fusion proteins were prepared using fragments of BRD4 (1) (Accession No. NM_058243), BRD2 (1) (Accession No. NM_005104) and BRDT (1) (Accession No. NM_001242806) (SEQ ID NO. 13, 14 and 15 respectively) and prolabel (PL). The expression construct containing the fusion proteins were used to transducer the HEK cells. Cells were plated in a 384 well-plate and incubated overnight at 37° C./5% CO2 to allow the cells to attach and gro.

[6] = target: G9A(918-1198)-PL (Homo sapiens, UniProt Q96KQ7); assay: Half-life of G9A catalytic domain-PL fusion in A549 cells after cycloheximide (FIG. 10); type: cell-based, humans
Chain of G9A(918-1198)-PL (Q96KQ7 with tags, fused parts or gaps): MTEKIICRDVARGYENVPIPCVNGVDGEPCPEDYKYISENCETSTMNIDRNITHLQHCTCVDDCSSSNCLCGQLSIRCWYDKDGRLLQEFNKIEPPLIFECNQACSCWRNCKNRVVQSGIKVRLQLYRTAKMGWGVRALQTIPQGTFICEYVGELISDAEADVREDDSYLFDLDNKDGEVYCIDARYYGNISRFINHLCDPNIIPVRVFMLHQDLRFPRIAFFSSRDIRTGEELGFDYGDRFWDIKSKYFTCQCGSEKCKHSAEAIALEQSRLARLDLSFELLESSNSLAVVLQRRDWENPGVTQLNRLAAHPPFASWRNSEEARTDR
Description: Methyltransferases are a group of transferases enzymes involved in DNA methylation. G9a methyltransferase methylates lysine 9 of histone H3 and is present in humans.
The enzyme donor PL fused to the catalytic domain of G9A was expressed in A549 cells, which were plated I a 384-well plate and incubated overnight at 37° C./5% CO2 to allow the cells to attach and grow. […] Both the batches were then treated with cycloheximide to prevent further protein production and the half-life of the fusion protein in both the batches were calculated as shown in FIG. 10. […] UNC0638 is commercially available and is an inhibitor of G9a/GLP methyltransferases. See, e.g. http (colon slash slash) apps.thesgc.org/chemical_probes/UNC0638/#overview, SGC product literature.

[7] = target: T1, CYP 19A amino acids 1-503-PL fusion (Homo sapiens, UniProt P11511); assay: CYP19A-PL fusion stabilization in HEK cells; type: cell-based; details: data not shown
T1 construct: expressed in transfected cells; host or cells: HEK
T1 sequence (P11511 1-503): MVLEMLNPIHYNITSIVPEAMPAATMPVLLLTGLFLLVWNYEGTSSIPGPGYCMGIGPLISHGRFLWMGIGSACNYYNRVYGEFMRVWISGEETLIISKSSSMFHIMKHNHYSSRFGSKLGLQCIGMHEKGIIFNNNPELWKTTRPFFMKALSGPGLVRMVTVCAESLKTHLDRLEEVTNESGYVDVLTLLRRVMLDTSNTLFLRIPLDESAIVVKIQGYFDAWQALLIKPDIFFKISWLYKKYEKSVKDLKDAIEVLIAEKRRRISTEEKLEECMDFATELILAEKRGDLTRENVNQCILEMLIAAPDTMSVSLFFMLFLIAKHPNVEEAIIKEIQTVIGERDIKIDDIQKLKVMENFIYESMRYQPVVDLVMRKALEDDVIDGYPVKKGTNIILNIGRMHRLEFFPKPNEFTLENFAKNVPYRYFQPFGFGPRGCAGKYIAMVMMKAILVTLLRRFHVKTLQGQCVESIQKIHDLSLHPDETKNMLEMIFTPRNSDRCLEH
Description: as §4
Arimidex® anastrazole is available from AstraZeneca and is known to bind to aromatase. YM511 (chemical Name: 4-[[(4-Bromophenyl)methyl]-4H-1,2,4-triazol-4-ylamino]benzonitrile) is also an aromatase inhibitor. CYP19 is also known as aromatase.

[8] = target: T2, BLK (241-494)-PL fusion (Homo sapiens, UniProt P51451); assay: Specificity of binding compounds, BLK-PL fusion in U2OS cells (FIG. 9B); type: cell-based; set-up: BLK peptide containing amino acids from 241-494 were fused with the PL; expressed in transfected cells
T2 sequence (P51451 241-494): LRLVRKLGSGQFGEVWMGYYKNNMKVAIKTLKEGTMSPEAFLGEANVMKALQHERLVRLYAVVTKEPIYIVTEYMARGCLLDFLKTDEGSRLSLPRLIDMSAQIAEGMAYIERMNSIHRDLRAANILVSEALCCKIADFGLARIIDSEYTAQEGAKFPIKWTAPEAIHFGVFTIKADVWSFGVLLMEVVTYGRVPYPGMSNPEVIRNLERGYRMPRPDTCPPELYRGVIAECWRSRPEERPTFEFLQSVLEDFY

[9] = target: T2, BLK (241-494)-PL fusion; assay: BLK-PL fusions of varying sequence length treated with dasatinib, EFC chemiluminescence; type: cell-based; set-up: BLK peptide containing amino acids from 241-494 were fused with the PL; expressed in transfected cells; HEK cells are also named; details: 241-494 fusion compared with the other BLK sequence lengths; 3 hours
Description: A number of fusions were constructed that included varying amounts of the protein sequence centered around the kinase active site as defined by homology to other kinases. E.g. fusion containing protein BLK amino acid numbers 241-494, 246-494, 251-494, 256-494, 261-494 and 266-494 were made.
The expression construct containing the fusion protein was used to transduce the HEK cells. The cells were then incubated in the presence of dasatinib for 3 hours.
BLK-PL fusions were then quantified by adding lysis buffer, EA and chemiluminescent substrate. […] Dasatinib, N-(2-chloro-6-methylphenyl)-2-[[6-[4-(2-hydroxyethyl)-1-piperazinyl]-2-methyl-4-pyrimidinyl]amino]-5-thiazole carboxamide monohydrate, is an oral multi-BCR/ABL and Src family tyrosine kinase inhibitor approved for use in patients with chronic myelogenous leukemia (CML).
Results showing the binding of dasatinib to BLK containing amino acid sequence 241-494 are depicted in FIG. 3. The expression plasmids (e.g. 241-494) indicated in the legend are named to show the amino acid locations of the start and stop of the BLK sequence used. The plasmids were used to transduce parental U2OS cells. The cells were then treated with dasatanib for 3 hrs and the BLK-PL fusions were quantified by adding lysis buffer, EA and chemiluminescent substrate.

[10] = PL-Bak, U2OS, overnight, luminescence

Chain of BCL-2 / PL-Bak (P10415 whole entry): as the sequence (P10415 whole entry) above

## CC1(C)CCC(c2ccc(Cl)cc2)=C(CN2CCN(c3ccc(C(=O)NS(=O)(=O)c4ccc(N[C@H](CCN5CCOCC5)CSc5ccccc5)c(S(=O)(=O)C(F)(F)F)c4)cc3)CC2)C1 [ABT-263]
[1]; PL-Bak
  HillSlope: −0.4082
[1]; [10]
  Bottom (best-fit): −14342
[1]; overnight, U2OS
  effect on BCL-2 binding to and stabilization of Bak: little effect
[2]
  HillSlope: −1.216
  Bottom (best-fit): 5900
  Top (best-fit): 31800
  effect on BCL-2 stabilization of Bax: somewhat similar effect
[3]
  HillSlope: −1.635
  Bottom (best-fit): 6740
  Top (best-fit): 136900
  effect on BCL-2/Bim stabilization: prevented the stabilizing effect

## CN(C)CC[C@H](CSc1ccccc1)Nc1ccc(S(=O)(=O)NC(=O)c2ccc(N3CCN(Cc4ccccc4-c4ccc(Cl)cc4)CC3)cc2)cc1[N+](=O)[O-] [ABT-737]
[1]; PL-Bak
  HillSlope: −0.5348
[1]; [10]
  Bottom (best-fit): 5446
  Top (best-fit): 11602
[1]; overnight, U2OS
  effect on BCL-2 binding to and stabilization of Bak: little effect
[2]
  HillSlope: −1.485
  Bottom (best-fit): 6973
  Top (best-fit): 31292
  effect on BCL-2 stabilization of Bax: somewhat similar effect
[3]
  HillSlope: −1.898
  Bottom (best-fit): 7774
  Top (best-fit): 139290
  effect on BCL-2/Bim stabilization: prevented the stabilizing effect

## C[C@]12CC[C@H](O)CC1=CC[C@@H]1[C@@H]2CC[C@]2(C)C(c3cccnc3)=CC[C@@H]12 [Abiraterone]
[4]; stabilization, gain of signal
  pEC50: 9.60

## Cc1sc2c(c1C)C(c1ccc(Cl)cc1)=N[C@@H](CC(=O)OC(C)(C)C)c1nnc(C)n1-2 [JQ1]
[5]
  stability of fusion protein following compound binding: increase in stability

## CC(=O)N1CCN(c2ccc(OCC3COC(Cn4ccnc4)(c4ccc(Cl)cc4Cl)O3)cc2)CC1 (stereo not drawn) [Ketoconazole]
[4]
  HillSlope: 1083
[4]; HEK cells, 3-6 hrs
  stabilization of CYP 17 A domain fusion: stabilization
[4]; HEK cells, 3-6 hrs at 37° C.
  Bottom (best-fit): 1.230e+006
  Top (best-fit): 2.348e+006

## COc1cc2c(NC3CCN(C(C)C)CC3)nc(C3CCCCC3)nc2cc1OCCCN1CCCC1 [UNC0638]
[6]; A549 cells, cycloheximide
  half-life of fusion protein compared to fusion protein not exposed to the binding partner: greater
[6]; after 100 minutes of cycloheximide, A549 cells pretreated 6 hrs
  percent change in luminescence: minimal

## N#Cc1ccc(N(Cc2ccc(Br)cc2)n2cnnc2)cc1 [YM511, 4-[[(4-Bromophenyl)methyl]-4H-1,2,4-triazol-4-ylamino]benzonitrile]
[7]
  stabilization of CYP 19A fusion peptide: stabilized

## CC(C)(C#N)c1cc(Cn2cncn2)cc(C(C)(C)C#N)c1 [anastrazole]
[7]
  stabilization of CYP 19A fusion peptide: stabilized

## Cc1nc(Nc2ncc(C(=O)Nc3c(C)cccc3Cl)s2)cc(N2CCN(CCO)CC2)n1.O [dasatinib, N-(2-chloro-6-methylphenyl)-2-[[6-[4-(2-hydroxyethyl)-1-piperazinyl]-2-methyl-4-pyrimidinyl]amino]-5-thiazole carboxamide monohydrate]
[8]; BLK-PL vs MEK-PL fusions
  binding specificity: specific for binding to the BLK fusion containing the ATP binding site
[8]; U2OS cells, over a period of time
  signal (BLK-PL fusion) compared to cells incubated with U0126 and PD035901: gain in signal
[9]
  affinity of BLK-PL fusion with dasatinib: highest affinity
